Data taken from patent US6541463B1, “Inhibitors of type 5 and type 3 17β-hydroxysteroid dehydrogenase and methods for their use” (Endorecherche, Inc., priority 1998, dated 2003).

What was measured:
[1] = tested on: ZR-75-1 cells; experiment: Antiestrogenic activity: inhibition of E2-induced proliferation of ZR-75-1 cells; type: cell-based, human; parameters: ZR-75-1 Activity, E2 / ZR-75-1 Activity E2 E^−6: unit not given here
Method: The manner in which the inhibition is determined is described in “Other Tests; C-Estrogenic/Antiestrogenic Activity”. Lower numbers are desirable. ND means that a determination was not done.
(§1) Estrogenic/antiestrogenic activity of some preferred compounds has been measured using the […] human breast cancer cell line as described in more detail below.
(§2) All media and medium supplments were purchased from Sigma. Cells were subcultured weekly by treatment with a pancreatic solution containing EDTA (0.2 g/L). The cell cultures used for the experiments herein describied were between passages 89 and 94.
(§3) Cells in their logarithmic growth phase were harvested, briefly centrifuged, and resuspended in RPMI 1640. Cells were then plated in triplicate in LIMBRO 24-well plastic culture plates (2 cm^2/well). Since plating density influences the effect of hormones on ZR-75-1 cell growth, cells were plated at a density of 1×10^4 cells/well. […] Control cultures received the ethanol vehicle only. Cells were then allowed to grow at 37° C. for 10 days with medium changes (of identical composition) every 2 days.
(§4) After E2 and/or antiestrogen treatment, cells were harvested by addition of 0.5 ml of a pancreatin solution (Sigma) for 5-10 min at 37° C. before addition of 0.5 mnl of RPMI 1640 containing 5% dextran coated […] bovine serum in order to block enzymatic action. Cell number (0.10 ml aliquot) was determined by measurement of DNA content as previously described (Simard et al., Endocrinology 126: 3223-3231,1990).

[2] = In vivo assay of oral bioavailability (plasma AUC 0-7 h by LCMS/MS); parameters: species or system male Sprague Dawley rats; settings: male, Sprague-Dawley [Crl:CD(SD)Br]
Method: In column 1, the oral bioavailability of preferred type 5 inhibitors, expressed in ng/mL.h, was determined as described below in “Other Tests, A-In Vivo Assays of Bioavailability of Human Type 5 17β-HSD Inhibitors”. Higher number are desirable. ND means that a determination was not done.
The measurements at various time intervals were for values greater than or equal to 1.0 ng/mL and less than or equal to 50 ng/mL.
Male Sprague-Dawley rats [Crl:CD(SD)Br] weighing 275-350 g were obtained from Charles-River Canada Inc. and housed 2 per cage during the acclimation period and individually during the study period. The animals were maintained under a regimen of 12 hours light: 12 hours dark (lights on at 08:00). Animals received certified Rodent feed (Lab Diet #5002, pellets) and tap water ad libitum. Rats were fasted (access to water only) starting on the evening prior to dosing.
Each compound to be tested was administered to three animals as a suspension in 0.4% methylcellulose by oral gavage at a dose of 0.5 mg/rat (1.0 ml/rat). Four to eight new compounds were tested each day and one group of animals received megestrol acetate (MGA) under the same conditions on each dosing day as a reference. […] Blood samples were immediately transferred into a refrigerated 0.75 ml Microtainer containing EDTA and kept in an ice-water bath until centrifugation at 3000 rpm for 10 minutes. Plasma separation was performed rapidly (less than 50 minutes) after blood collection. One aliquot of 0.25 ml of plasma was then transferred into a borosilicate tube (13×100) and was rapidly frozen on dry-ice. Plasma samples were kept at −80° C. until measurement of plasma concentration of the inhibitor(s) by LCMS/MS.
Aliquots of rat plasma (0.250 mL) were transferred to 13×100 mm borosilicate tubes. Water (1.0 mL) and internal standard solution (0.1 mL) were added to each sample and vortexed for 2 min. A mixture of N-butyl chloride and acetone (v:v, 7:3) (3 mL) was added to each sample and vortexed for 2 min. This step was repeated and the combined organic phases were evaporated to dryness under nitrogen in a Turbo Vap evaporator at 35° C. The residue was reconstituted with 1 mL of methanol and evaporated in a Turbo Vap evaporator at 35° C. The final extract was reconstituted into 0.1 mL of methanol/water (v:v, 75:25) and then transferred into a conical vial for injection into the mass spectrometer.
The assay procedure was performed by analyzing, in duplicate, rat plasma samples spiked at six different Type 5 inhibitor concentrations (1, 2, 5, 10, 20 and 50 ng/mL). The lower limit of quantitation (LOQ) was established at 1.0 ng/mL. Values lower than 1.0 ng/mL were expressed as below limit of quantification (BLQ). […]

[3] = tested on: ZR-75-1 cells; experiment: Estrogenic activity: stimulation of proliferation of ZR-75-1 cells; type: cell-based, human
Method: […] The manner in which the stimulation is determined is described in “Other Tests; C-Estrogenic/Antiestrogenic activity” Lower numbers are desirable. ND means that a determination was not done.
as §1, §2, §3, §4

[4] = Table 4′, E2-induced proliferation, 3E^−8
[5] = 0.5 mg, Table 4′, oral, rat plasma

Structure (SMILES): CC(=O)[C@@]1(OC(=O)CCCCF)CCC2C3C=C(C)C4=CC(=O)CC[C@]4(C)C3CC[C@@]21C (some centres unmarked) [EM-1195-CS]
- ZR-75-1 Activity, E2 ([1]; E2): −40
- ZR-75-1 Activity, E2 ([1]; E2, E^−8): −38
- AUC(0-t) ([2]; rat, plasma, po, 0.5 mg): 31 ± 5.5 ng·h/mL
- ZR-75-1 Activity, Basal ([3]; E^−6, in %): 18
- ZR-75-1 Activity, Basal ([3]; E^−8, in %): −11

Structure (SMILES): CC1CCC2(CCC3C4CCc5cc(O)c([N+](=O)[O-])cc5C4CCC32C)OC1=O [EM-1131, 2-Nitro-1,3,5(10)-estratrien-3-ol-17(R)-spiro-2′-(5′-methyl-6′-oxo)tetrahydropyran]
- ZR-75-1 Activity, E2 3E^−8 [1, 4]: 0%
- AUC(0-t) [2, 5]: 124 ± 27 ng·h/mL
- ZR-75-1 Activity, Basal E^−6 ([3]; Table 4′): 15%
- ZR-75-1 Activity, Basal E^−8 ([3]; Table 4′): 7%

Structure (SMILES): COc1ccc2c(c1)C(=O)CC1C3CCC4(CCC(C)(C)C(=O)O4)C3(C)CCC21O (centres unmarked) [EM-1386]
- ZR-75-1 Activity, E2 3E^−8 [1, 4]: 0%
- AUC(0-t) [2, 5]: 5600 ± 789 ng·h/mL
- ZR-75-1 Activity, Basal E^−6 ([3]; Table 4′): −12%
- ZR-75-1 Activity, Basal E^−8 ([3]; Table 4′): 0%

Structure (SMILES): C[C@]12CCC3c4cc([N+](=O)[O-])c(O)cc4CCC3C1CC[C@@]21CCCC(=O)O1 (stereo partly drawn) [EM-1124, 2-Nitro-1,3,5(10)-estraetriene-3-ol-17(R)-spiro-2′-(6′-oxo)tetrahydropyran]
- ZR-75-1 Activity, E2 3E^−8 [1, 4]: 0%
- AUC(0-t) ([2]; rat, plasma, po, 0.5 mg, Table 4′, cell marked (8 h)): 5.1 ± 1 ng·h/mL
- ZR-75-1 Activity, Basal E^−6 ([3]; Table 4′): 12%
- ZR-75-1 Activity, Basal E^−8 ([3]; Table 4′): 0%

Structure (SMILES): COCCOc1cc2c(cc1C#N)C1CC[C@@]3(C)C(CC[C@@]34CCC(C)(C)C(=O)O4)C1CC2 (some centres unmarked) [EM-1396]
- ZR-75-1 Activity, E2 3E^−8 [1, 4]: +12%
- AUC(0-t) [2, 5]: 196 ± 53 ng·h/mL
- ZR-75-1 Activity, Basal E^−6 ([3]; Table 4′): 0%
- ZR-75-1 Activity, Basal E^−8 ([3]; Table 4′): 0%

Structure (SMILES): COCCOc1cc2c(cc1C(=O)OC)C1CC[C@@]3(C)C(CC[C@@]34CCC(C)(C)C(=O)O4)C1CC2 (stereo partly drawn) [EM-1402-CS, 2-Carbomethoxy-3-(2″-methoxyethyloxy)-1,3,5(10)-estratrien 17(R)-spiro-2′-(5′,5′-dimethyl-6′-oxo)tetrahydropyran]
- inhibition at 1 µM ([1]; Homo sapiens, ZR-75-1, 10^−6 M inhibitor, negative number = stimulation reduced, read-out: percentage of inhibition of E2-induced proliferation of ZR-75-1 cells): 61%
- ZR-75-1 Activity, E2 3E^−8 [1, 4]: 0%
- AUC(0-t) [2, 5]: 214 ± 36 ng·h/mL
- ZR-75-1 Activity, Basal E^−6 ([3]; Table 4′): −10%
- ZR-75-1 Activity, Basal E^−8 ([3]; Table 4′): 0%

Structure (SMILES): CC1(C)CC[C@@]2(CCC3C4CCc5cc(C(N)=O)ccc5C4CCC32C)OC1=O (some centres unmarked) [EM-1404]
- ZR-75-1 Activity, E2 3E^−8 [1, 4]: 0%
- AUC(0-t) [2, 5]: 3840 ± 197 ng·h/mL
- ZR-75-1 Activity, Basal E^−6 ([3]; Table 4′): 0%
- ZR-75-1 Activity, Basal E^−8 ([3]; Table 4′): 0%

Structure (SMILES): CC1(C)CCC2(CCC3C4CCc5cc(O)c([N+](=O)[O-])cc5C4CCC32C)OC1=O (centres unmarked) [EM-1125-CS]
- ZR-75-1 Activity, E2 3E^−8 [1, 4]: 0%
- AUC(0-t) [2, 5]: 95 ± 6.5 ng·h/mL
- ZR-75-1 Activity, Basal E^−6 ([3]; Table 4′): 34%
- ZR-75-1 Activity, Basal E^−8 ([3]; Table 4′): 10%

Structure (SMILES): COCCOc1cc2c(cc1Cl)C1CCC3(C)C(CCC34CCC(C)(C)C(=O)O4)C1CC2 (centres unmarked) [EM-1371-CS]
- ZR-75-1 Activity, E2 3E^−8 [1, 4]: 0%
- AUC(0-t) [2, 5]: 64 ± 21 ng·h/mL
- ZR-75-1 Activity, Basal E^−6 ([3]; Table 4′): +137%
- ZR-75-1 Activity, Basal E^−8 ([3]; Table 4′): 0%

Structure (SMILES): CC(C)C[C@@H]1CC2C3C=CC4=CC(=O)CC[C@]4(C)C3CC[C@]2(C)C1=O (some centres unmarked) [EM-1273-CS]
- ZR-75-1 Activity, E2 3E^−8 ([1]; with E2, 3E^−8): 0
- ZR-75-1 Activity E2 E^−6 ([1]; with E2, E^−6): −30
- AUC(0-t) ([2]; rat, plasma, po, 0.5 mg/rat): 85 ± 26 ng·h/mL
- ZR-75-1 Activity, Basal E^−6 [3]: 0
- ZR-75-1 Activity, Basal E^−8 [3]: 0

Structure (SMILES): CC1(C)CCC2(CCC3C4CCc5ccccc5C4CCC32C)OC1=O (centres unmarked) [CS-224]
- ZR-75-1 Activity, E2 3E^−8 [1, 4]: 13%
- AUC(0-t) [2, 5]: 18 ± 3.5 ng·h/mL
- ZR-75-1 Activity, Basal E^−6 ([3]; Table 4′): 128%
- ZR-75-1 Activity, Basal E^−8 ([3]; Table 4′): 16%

Structure (SMILES): COCCOc1cc2c(cc1C(N)=O)C1CC[C@@]3(C)C(CC[C@@]34CCC(C)(C)C(=O)O4)C1CC2 (stereo partly drawn) [EM-1424, 2-Carbamoyl-3-(2″-methoxyethyloxy)-1,3,5(10)-estratrien 17(R)-spiro-2′-(5′,5′-dimethyl-6′-oxo)tetrahydropyran]
- ZR-75-1 Activity, E2 3E^−8 [1, 4]: −11%
- AUC(0-t) [2, 5]: 368 ± 70 ng·h/mL
- ZR-75-1 Activity, Basal E^−6 ([3]; Table 4′): 0%
- ZR-75-1 Activity, Basal E^−8 ([3]; Table 4′): 0%

Structure (SMILES): CCC(=O)O[C@]1(C(C)=O)CCC2C3C=C(C)C4=CC(=O)C[C@H](C)[C@]4(C)C3CC[C@@]21C (some centres unmarked) [CS-243]
- ZR-75-1 Activity, E2 ([1]; E2): −57
- ZR-75-1 Activity, E2 ([1]; E2, E^−8): −60
- AUC(0-t) ([2]; rat, plasma, po, 0.5 mg): 11 ± 2.5 ng·h/mL
- ZR-75-1 Activity, Basal ([3]; E^−6, in %): 0
- ZR-75-1 Activity, Basal ([3]; E^−8, in %): 0
